Experimental findings from patent publication US10047096B2, “Substituted pyridobenzodiazepinone-derivatives and use thereof” (Bayer Pharma Aktiengesellschaft, priority 2014, dated 2018) are described below.

pIC50: −log10 of the molar value.

The target of this assay is human PDGFRβ (Homo sapiens (Human), UniProt P09619). The assay is described as follows: PDGFRβ kinase assay (PDGFRβ-HTRF). The class given is biochemical. The settings on record: 10 μM ATP; some mean values from multiple determinations. The protocol: The PDGFRβ-inhibitory activity of the inventive compounds was determined in the PDGFRβ-HTRF assay described hereinafter.
human PDGFRβ, sequence (P09619 561-1106): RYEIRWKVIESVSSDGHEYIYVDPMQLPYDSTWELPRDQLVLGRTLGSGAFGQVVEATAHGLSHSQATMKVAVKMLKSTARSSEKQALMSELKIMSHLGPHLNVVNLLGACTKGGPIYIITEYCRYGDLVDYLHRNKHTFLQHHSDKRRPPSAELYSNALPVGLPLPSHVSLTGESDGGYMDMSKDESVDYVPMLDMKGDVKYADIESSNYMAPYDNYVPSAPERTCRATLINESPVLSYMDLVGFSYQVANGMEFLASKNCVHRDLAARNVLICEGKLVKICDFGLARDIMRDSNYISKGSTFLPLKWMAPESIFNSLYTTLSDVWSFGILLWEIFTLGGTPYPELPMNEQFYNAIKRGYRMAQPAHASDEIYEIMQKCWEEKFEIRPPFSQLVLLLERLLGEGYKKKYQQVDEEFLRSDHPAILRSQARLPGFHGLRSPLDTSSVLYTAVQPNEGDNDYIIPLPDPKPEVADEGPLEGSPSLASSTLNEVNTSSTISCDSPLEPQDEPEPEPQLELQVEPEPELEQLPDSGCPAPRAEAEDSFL
The kinase used was a recombinant fusion protein composed of N-terminal GST and a C-terminal fragment of human PDGFRβ (amino acids R561-L1106), expressed in baculovirus-infected insect cells (Sf9) and purified by affinity chromatography (from ProQinase GmbH, Freiburg, Germany). The substrate used for the kinase reaction was biotinylated poly-Glu,Tyr (4:1) copolymer (from Cisbio Bioassays, Codolet, France).
For the assay, 50 nl of a 100-fold concentrated solution of the test substance in DMSO was pipetted into a black “low-volume 384 well” microtitre plate (from Greiner Bio-One, Frickenhausen, Germany), then 2 μl of a solution of PDGFRβ in assay buffer [50 mM HEPES/NaOH pH 7.5, 10 mM MgCl2, 2.5 mM dithiothreitol, 0.01% (v/v) Triton-X100 (from Sigma)] was added and the mixture was incubated for 15 min, in order to enable preliminary binding of the substance to the enzyme before the kinase reaction. […] The resulting mixture was incubated at 22° C. for 1 h to allow formation of a complex of the biotinylated phosphorylated substrate and the detection reagents.
Subsequently, the amount of the phosphorylated substrate was evaluated by measuring the resonance energy transfer from the PT66-Eu chelate to the streptavidin-XL665. […] The IC50 values were calculated by a 4-parameter fit.
The compound `Cc1ccc(O)cc1Nc1ccnc2c1C(=O)Nc1cc(CNCc3ccccc3)ccc1N2` [Example 145] had a negative-log IC50 (pIC50) of 8.24.
In the case of `Cc1cc(F)c(Nc2ccnc3c2C(=O)Nc2cc(CN4CC[C@H](N)C4)ccc2N3)cc1O` [Example 215, 8-{[(3S)-3-Aminopyrrolidin-1-yl]methyl}-4-[(2-fluoro-5-hydroxy-4-methylphenyl)amino]-6,11-dihydro-5H-pyrido[2,3-b][1,5]benzodiazepin-5-one] it was 8.69.
With `COc1cccc(CNCc2ccc3c(c2)NC(=O)c2c(Nc4cc(O)ccc4C)ccnc2N3)c1` [Example 96] the figure was 8.68.
In the case of `CCOC(=O)[C@H]1C[C@H](NCc2ccc3c(c2)NC(=O)c2c(Nc4cc(O)c(C)cc4F)ccnc2N3)C1` [Example 192, trans-Ethyl 3-[({4-[(2-fluoro-5-hydroxy-4-methylphenyl)amino]-5-oxo-6,11-dihydro-5H-pyrido[2,3-b][1,5]benzodiazepin-8-yl}methyl)amino]cyclobutanecarboxylate] it was 8.79; in that of `Cc1cc(F)c(Nc2ccnc3c2C(=O)Nc2cc(C(=O)N4C[C@H](O)C[C@H]4CO)ccc2N3)cc1O` [Example 160, 4-[(2-Fluoro-5-hydroxy-4-methylphenyl)amino]-8-{[(2S,4R)-4-hydroxy-2-(hydroxymethyl)pyrrolidin-1-yl]carbonyl}-6,11-dihydro-5H-pyrido[2,3-b][1,5]benzodiazepin-5-one], 8.14.
The compound `Cc1ccc(O)cc1Nc1ccnc2c1C(=O)Nc1cc(CNCC3CNC(=O)C3)ccc1N2` (stereo not shown) [Example 130] had a pIC50 of 8.64.
With `Cc1ccc(O)cc1Nc1ccnc2c1C(=O)Nc1cc(CNCc3ccc(F)cc3)ccc1N2` [Example 119] the figure was 8.72.
In the case of `Cc1cc(F)c(Nc2ccnc3c2C(=O)Nc2cc(CN4C[C@@H](O)[C@@H](O)C4)ccc2N3)cc1O` [Example 210] it was 8.99; in that of `Cc1ccc(O)cc1Nc1ccnc2c1C(=O)Nc1cc(CNCC3CCN(C(C)C)C3)ccc1N2` (stereo not shown) [Example 140], 8.79; in that of `COCCOCCOCCOCCOCCOCCOCCOCCNCc1ccc2c(c1)NC(=O)c1c(Nc3cc(O)c(C)cc3F)ccnc1N2` [Example 185, 4-[(2-Fluoro-5-hydroxy-4-methylphenyl)amino]-8-(2,5,8,11,14,17,20,23-octaoxa-26-azaheptacosan-27-yl)-6,11-dihydro-5H-pyrido[2,3-b][1,5]benzodiazepin-5-one], 7.60.
With `Cc1cc(F)c(Nc2ccnc3c2C(=O)Nc2cc(CN4CCC[C@H](N)C4)ccc2N3)cc1O` [Example 219, 8-{[(3S)-3-Aminopiperidin-1-yl]methyl}-4-[(2-fluoro-5-hydroxy-4-methylphenyl)amino]-6,11-dihydro-5H-pyrido[2,3-b][1,5]benzodiazepin-5-one] the figure was 8.83; with `N#Cc1ccc2c(c1)NC(=O)c1c(Nc3cc(O)c(Br)cc3F)ccnc1N2` [Example 7, 4-[(4-Bromo-2-fluoro-5-hydroxyphenyl)amino]-5-oxo-6,11-dihydro-5H-pyrido[2,3-b][1,5]benzodiazepine-8-carbonitrile], 8.02.
With `Cc1cc(F)c(Nc2ccnc3c2C(=O)Nc2cc(CN4CCN(C)CC4)ccc2N3)cc1O` [Example 46, 4-[(2-Fluoro-5-hydroxy-4-methylphenyl)amino]-8-[(4-methylpiperazin-1-yl)methyl]-6,11-dihydro-5H-pyrido[2,3-b][1,5]benzodiazepin-5-one], the negative logarithm of the IC50 (pIC50) is 8.82.
With `Cc1cc(F)c(Nc2ccnc3c2C(=O)Nc2cc(C(=O)N4CCCC(O)C4)ccc2N3)cc1O` (racemic) [Example 82, rac-4-[(2-Fluoro-5-hydroxy-4-methylphenyl)amino]-8-[(3-hydroxypiperidin-1-yl)carbonyl]-6, 11-dihydro-5H-pyrido[2,3-b][1,5]benzodiazepin-5-one] the figure was 8.00.
In the case of `Cc1ccc(O)cc1Nc1ccnc2c1C(=O)Nc1cc(CNc3ccccc3F)ccc1N2` [Example 147] it was 7.28; in that of `Cc1cc(F)c(Nc2ccnc3c2C(=O)Nc2cc(CN4CC5CC5C4CO)ccc2N3)cc1O` (stereo not drawn) [Example 164, 4-[(2-Fluoro-5-hydroxy-4-methylphenyl)amino]-8-{[cis-2-(hydroxymethyl)-3-azabicyclo[3.1.0]hex-3-yl]methyl}-6,11-dihydro-5H-pyrido[2,3-b][1,5]benzodiazepin-5-one], 8.43; in that of `CCNCc1ccc2c(c1)NC(=O)c1c(Nc3cc(O)ccc3C)ccnc1N2` [Example 25, 8-[(Ethylamino)methyl]-4-[(5-hydroxy-2-methylphenyl)amino]-6,11-dihydro-5H-pyrido[2,3-b][1,5]benzodiazepin-5-one], 8.49.
With `Cc1cc(F)c(Nc2ccnc3c2C(=O)Nc2cc(CN4CCC(O)C(C)(C)C4)ccc2N3)cc1O` (racemic) [Example 166, rac-4-[(2-Fluoro-5-hydroxy-4-methylphenyl)amino]-8-[(4-hydroxy-3,3-dimethylpiperidin-1-yl)methyl]-6,11-dihydro-5H-pyrido[2,3-b][1,5]benzodiazepin-5-one] the figure was 8.30; with `CCOC(=O)[C@H]1C[C@@H](NCc2ccc3c(c2)NC(=O)c2c(Nc4cc(O)c(C)cc4F)ccnc2N3)C1` [Example 191, cis-Ethyl 3-[({4-[(2-fluoro-5-hydroxy-4-methylphenyl)amino]-5-oxo-6,11-dihydro-5H-pyrido[2,3-b][1,5]benzodiazepin-8-yl}methyl)amino]cyclobutanecarboxylate], 9.20.
Compound `Cc1ccc(O)cc1Nc1ccnc2c1C(=O)Nc1cc(CNCC(C)(C)N(C)C)ccc1N2` [Example 144] showed a negative logarithm of the IC50 (pIC50) of 8.11.
With `Cc1cc(F)c(Nc2ccnc3c2C(=O)Nc2cc(C(=O)N4CCCC(CCO)C4)ccc2N3)cc1O` (racemic) [Example 179, rac-4-[(2-Fluoro-5-hydroxy-4-methylphenyl)amino]-8-{[3-(2-hydroxyethyl)piperidin-1-yl]carbonyl}-6,11-dihydro-5H-pyrido[2,3-b][1,5]benzodiazepin-5-one] the figure was 7.84.
In the case of `Cc1cc(F)c(Nc2ccnc3c2C(=O)Nc2cc(CN4CCC(CO)C4)ccc2N3)cc1O` (racemic) [Example 177, rac-4-[(2-Fluoro-5-hydroxy-4-methylphenyl)amino]-8-{[3-(hydroxymethyl)pyrrolidin-1-yl]methyl}-6,11-dihydro-5H-pyrido[2,3-b][1,5]benzodiazepin-5-one] it was 8.77; in that of `Cc1ccn(CCCNCc2ccc3c(c2)NC(=O)c2c(Nc4cc(O)ccc4C)ccnc2N3)n1` [Example 101], 8.53.
Compound `Cc1cc(F)c(Nc2ccnc3c2C(=O)Nc2cc(CNC[C@@H]4CCN(C(=O)OC(C)(C)C)C[C@H]4O)ccc2N3)cc1O` [Example 176, tert-Butyl (3S,4S)-4-{[({4-[(2-fluoro-5-hydroxy-4-methylphenyl)amino]-5-oxo-6,11-dihydro-5H-pyrido[2,3-b][1,5]benzodiazepin-8-yl}methyl)amino]methyl}-3-hydroxypiperidine-1-carboxylate] gave a negative logarithm of the IC50 (pIC50) of 8.46.
With `Cc1ccc(O)cc1Nc1ccnc2c1C(=O)Nc1cc(CNCc3cccc(F)c3)ccc1N2` [Example 120] the figure was 8.83.
